How the values were obtained:
CDK6/cyclin D3 = biological target: T1, CDK6/cyclin D3 (Homo sapiens, UniProt Q00534); assay: In vitro biochemical kinase activity assay for CDK6/cyclin D3 (HTRF)
T1 construct: purchased Carna
Method in brief: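 HTRF assay: 0.02 nM CDK6/cyclin D3 incubated with 1 mM (or 100 µM) ATP and 0.3 µM Rb-biotin substrate at 30°C for 60 min in kinase buffer with 5 mM MgCl2 and 1 mM DTT.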

CDK2/cyclin E1 = biological target: T2, CDK2/cyclin E1 (Homo sapiens, UniProt P24941); assay: In vitro biochemical kinase activity assay for CDK2/cyclin E1 (HTRF); details: 1 µM ATP
T2 construct: purchased Carna
Protocol: I. In Vitro Biochemical Kinase Activity Assay for CDK2/Cyclin E1
The inhibitory effects of the compounds of the present invention on CDK2/cyclin E1 kinase activity were determined using a homogeneous time-resolved fluorescence (HTRF) assay. The experimental process was as follows: • 1. The kinase reaction was carried out in a 384-well plate. 15 nM CDK2/cyclin E1 kinase (Carna), 1 µM ATP, and 1 µM biotin-labeled substrate protein ATF2-biotin (Cisbio) were incubated at room temperature for 90 min in a buffer system composed of 10 mM MgCl2, 1 mM MnCl2, 1 mM DTT, and basal kinase buffer (Cisbio). • 2. The detection solution (Cisbio, containing reagents that specifically recognize phosphorylated ATF2 and ATF2-biotin proteins, respectively) was added. The plate was then sealed with a film (to protect from light and volatilization) and incubated at 25°C for 60 min. • 3. The plate was transferred to an Envision plate reader to detect fluorescence resonance energy transfer (FRET) signals. (The 665/615 ratio was calculated by reading the emission at 665 nm and 615 nM, respectively.) • 4. The IC50 values were determined by analyzing the inhibition at varying compound concentrations using Model 205 in the XLfit software.

CDK4/cyclin D3 = biological target: T3, CDK4/cyclin D3 (Homo sapiens, UniProt P11802); assay: In vitro biochemical kinase activity assay for CDK4/cyclin D3 (HTRF)
T3 construct: purchased Carna
T3 sequence (P11802 whole entry): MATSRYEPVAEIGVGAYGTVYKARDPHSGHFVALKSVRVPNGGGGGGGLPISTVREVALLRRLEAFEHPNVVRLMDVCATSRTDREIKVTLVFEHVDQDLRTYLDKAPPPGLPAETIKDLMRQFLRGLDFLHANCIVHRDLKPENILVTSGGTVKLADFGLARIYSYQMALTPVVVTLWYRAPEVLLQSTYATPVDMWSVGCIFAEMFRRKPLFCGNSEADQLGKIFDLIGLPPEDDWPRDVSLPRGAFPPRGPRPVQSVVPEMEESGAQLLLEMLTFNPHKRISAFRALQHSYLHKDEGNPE
T3 sequence (P30281 whole entry partner): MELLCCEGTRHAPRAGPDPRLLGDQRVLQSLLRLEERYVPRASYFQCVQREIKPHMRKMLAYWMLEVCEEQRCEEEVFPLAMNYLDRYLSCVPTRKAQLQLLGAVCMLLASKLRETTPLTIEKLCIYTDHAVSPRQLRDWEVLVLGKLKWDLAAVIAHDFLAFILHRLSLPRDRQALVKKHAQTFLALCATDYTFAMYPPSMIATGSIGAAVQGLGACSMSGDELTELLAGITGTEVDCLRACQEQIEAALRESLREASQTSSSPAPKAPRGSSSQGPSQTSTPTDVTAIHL
Method in brief: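 HTRF kinase reaction: 4.9 nM CDK4/cyclin D3, 1 mM (or 80 µM) ATP and 0.3 µM Rb-biotin substrate, 90 min at 30°C in buffer with 50 mM MgCl2 and 1 mM DTT.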

[1] = unmarked data: 100 µM ATP in Step 1
[2] = unmarked data: 80 µM ATP in Step 1
[3] = data marked with *: 1 mM ATP in Step 1

T1 sequence (Q00534 whole entry): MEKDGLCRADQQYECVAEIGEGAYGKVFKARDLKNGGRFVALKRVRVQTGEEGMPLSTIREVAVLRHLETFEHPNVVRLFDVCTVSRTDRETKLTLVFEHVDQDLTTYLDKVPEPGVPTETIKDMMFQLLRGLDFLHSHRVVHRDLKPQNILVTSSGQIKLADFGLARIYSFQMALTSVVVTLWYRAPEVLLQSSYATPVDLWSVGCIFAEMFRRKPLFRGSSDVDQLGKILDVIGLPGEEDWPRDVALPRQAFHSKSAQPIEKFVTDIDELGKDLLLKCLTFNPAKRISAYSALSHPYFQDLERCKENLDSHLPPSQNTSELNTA
T1 sequence (P30281 whole entry partner): as the sequence (P30281 whole entry partner) above

Compound | IC50 (CDK6/cyclin D3; [1]) [nM] | IC50 (CDK2/cyclin E1) [nM] | IC50 (CDK4/cyclin D3; [2]) [nM] | IC50 (CDK6/cyclin D3; [3]) [nM] | IC50 (CDK4/cyclin D3; [3]) [nM]
CCN1CC2(C1)CN(c1ccc(Nc3ncc(Cl)c(C#Cc4cnn(C)c4C(C)C)n3)nc1)C2 [Example 62, 5-chloro-N-(5-(6-ethyl-2,6-diazaspiro[3.3]heptan-2-yl)pyridin-2-yl)-4-((5-isopropyl-1-methyl-1H-pyrazol-4-yl)ethynyl)pyrimidin-2-amine] | 4.86 | 129 | 0.36 |  | 
CC(C)n1c(C#Cc2nc(N[C@@H]3CCOC[C@H]3O)ncc2Cl)cnc1CN(C)C [Example 63, (3 S,4R)-4-((5-chloro-4-((2-((dimethylamino)methyl)-1-isopropyl-1H-imidazol-5-yl)ethynyl)pyrimidin-2-yl)amino)tetrahydro-2H-pyran-3-ol] | 130 | 693 | 23.8 |  | 
CC(C)n1c(C#Cc2nc(N[C@@H]3CCOC[C@H]3O)ncc2Cl)cnc1C(C)(C)O [Example 2, (3S,4R)-4-((5-chloro-4-((2-(2-hydroxypropan-2-yl)-1-isopropyl-1H-imidazol-5-yl)ethynyl)pyrimidin-2-yl)amino)tetrahydro-2H-pyran-3-ol] |  | 1320 |  |  | 
CC(C)NCc1ncc(C#Cc2nc(N[C@@H]3CCOC[C@H]3O)ncc2Cl)n1C(C)C [Example 40, (3 S,4R)-4-((5-chloro-4-((1-isopropyl-2-((isopropylamino)methyl)-1H-imidazol-5-yl)ethynyl)pyrimidin-2-yl)amino)tetrahydro-2H-pyran-3-ol] | 299 | 1970 | 30.8 |  | 
CC(C)n1c(C#Cc2nc(N[C@@H]3CCN(S(C)(=O)=O)C[C@H]3O)ncc2Cl)cnc1C(C)(C)O [Example 24, (3R,4R)-4-((5-chloro-4-((2-(2-hydroxypropan-2-yl)-1-isopropyl-1H-imidazol-5-yl)ethynyl)pyrimidin-2-yl)amino)-1-(methanesulfonyl)piperidin-3-ol] | 3.04 | 236 | 0.56 |  | 
CC(C)c1c(C#Cc2nc(N[C@@H]3CCOC[C@H]3O)ncc2Cl)cnn1C [Example 56, (3 S,4R)-4-((5-chloro-4-((5-isopropyl-1-methyl-1H-pyrazol-4-yl)ethynyl)pyrimidin-2-yl)amino)tetrahydro-2H-pyran-3-ol] | 49 | 1370 | 3.07 |  | 
CC(C)n1c(C#Cc2nc(N[C@@H]3CCOC[C@H]3O)ncc2Cl)cnc1[C@H](C)O [Example 30, (3 S,4R)-4-((5-chloro-4-((2-((S)-1-hydroxyethyl)-1-isopropyl-1H-imidazol-5-yl)ethynyl)pyrimidin-2-yl)amino)tetrahydro-2H-pyran-3-ol] | 11.4 | 125 | 1.14 |  | 
CC(C)c1c(C#Cc2nc(Nc3ccc(C4CCN(C)CC4)cn3)ncc2Cl)cnn1C [Example 57, 5-chloro-4-((5-isopropyl-1-methyl-1H-pyrazol-4-yl)ethynyl)-N-(5-(1-methylpiperidin-4-yl)pyridin-2-yl)pyrimidin-2-amine] | 3.7 | 2830 | 0.68 |  | 
CNCc1ncc(C#Cc2nc(N[C@@H]3CCOC[C@H]3O)ncc2Cl)n1C(C)C [Example 35, (3 S,4R)-4-((5-chloro-4-((1-isopropyl-2-((methylamino)methyl)-1H-imidazol-5-yl)ethynyl)pyrimidin-2-yl)amino)tetrahydro-2H-pyran-3-ol] | 131 | 539 | 19 |  | 
CC(=O)c1ncc(C#Cc2nc(N[C@@H]3CCOC[C@H]3O)ncc2Cl)n1C(C)C [Example 1, 1-(5-((5-chloro-2-(((3S,4R)-3-hydroxytetrahydro-2H-pyran-4-yl)amino)pyrimidin-4-yl)ethynyl)-1-isopropyl-1H-imidazol-2-yl)ethan-1-one] | 24.2 | 3630 | 6.2 |  | 
CCN1CCN(Cc2ccc(Nc3ncc(Cl)c(C#Cc4cnc(C(C)(C)O)n4C(C)C)n3)nc2)CC1 [Example 41, 2-(5-((5-chloro-2-((5-((4-ethylpiperazin-1-yl)methyl)pyridin-2-yl)amino)pyrimidin-4-yl)ethynyl)-1-isopropyl-1H-imidazol-2-yl)propan-2-ol] | 11 | 1850 | 1.83 |  | 
CCN1CC2(C1)CN(c1ccc(Nc3ncc(F)c(C#Cc4cnn(C)c4C(C)C)n3)nc1)C2 [Example 61, N-(5-(6-ethyl-2,6-diazaspiro[3.3]heptan-2-yl)pyridin-2-yl)-5-fluoro-4-((5-isopropyl-1-methyl-1H-pyrazol-4-yl)ethynyl)pyrimidin-2-amine] | 8.46 | 617 | 0.94 |  | 
CC(C)n1c(C#Cc2nc(Nc3ccc(C4CCN(C)CC4)cn3)ncc2Cl)cnc1C(C)(C)O [Example 55, 2-(5-((5-chloro-2-((5-(1-methylpiperidin-4-yl)pyridin-2-yl)amino)pyrimidin-4-yl)ethynyl)-1-isopropyl-1H-imidazol-2-yl)propan-2-ol] | 1.9 | 2120 | 0.33 |  | 
CC(C)c1nn(CC(C)(C)O)cc1C#Cc1nc(N[C@@H]2CCOC[C@H]2O)ncc1Cl [Example 65, (3 S,4R)-4-((5-chloro-4-((1-(2-hydroxy-2-methylpropyl)-3-isopropyl-1H-pyrazol-4-yl)ethynyl)pyrimidin-2-yl)amino)tetrahydro-2H-pyran-3-ol] | 1200 |  | 119 |  | 
CC(C)n1c(C#Cc2nc(N[C@@H]3CCOC[C@H]3O)ncc2Cl)cnc1CC1(N)CCCC1 [Example 131, (3S,4R)-4-((4-((2-((1-aminocyclopentyl)methyl)-1-isopropyl-1H-imidazol-5-yl)ethynyl)-5-chloropyrimidin-2-yl)amino)tetrahydro-2H-pyran-3-ol] |  |  |  | 684 | 23.2
CC(=O)N[C@@H]1COCC[C@H]1Nc1ncc(Cl)c(C#Cc2cnc(C(C)(C)O)n2C(C)C)n1 [Example 87, N-((3 S,4R)-4-((5-chloro-4-((2-(2-hydroxypropan-2-yl)-1-isopropyl-1H-imidazol-5-yl)ethynyl)pyrimidin-2-yl)amino)tetrahydro-2H-pyran-3-yl)acetamide] |  |  |  | 9360 | 3970
CC(C)c1c(C#Cc2nc(N[C@@H]3CCN(S(C)(=O)=O)C[C@H]3O)ncc2Cl)cnn1C [Example 33, (3R,4R)-4-((5-chloro-4-((5-isopropyl-1-methyl-1H-pyrazol-4-yl)ethynyl)pyrimidin-2-yl)amino)-1-(methanesulfonyl)piperidin-3-ol] |  |  |  | 10.3 | 1.35
CCN1CCN(Cc2ccc(Nc3ncc(Cl)c(C#Cc4cnn(C)c4C(C)C)n3)nc2)CC1 [Example 69, 5-Chloro-N-(5-((4-ethylpiperazin-1-yl)methyl)pyridin-2-yl)-4-((5-isopropyl-1-methyl-1H-pyrazol-4-yl)ethynyl)pyrimidin-2-amine] |  |  |  | 38.4 | 4.71
CC(C)n1c(C#Cc2nc(N[C@@H]3CCOC[C@H]3C#N)ncc2Cl)cnc1C(C)(C)O [Example 101, (3R,4R)-4-((5-chloro-4-((2-(2-hydroxypropan-2-yl)-1-isopropyl-1H-imidazol-5-yl)ethynyl)pyrimidin-2-yl)amino)tetrahydro-2H-pyran-3-carbonitrile] |  |  |  | 4770 | 786
CC1CCOc2ncc(C#Cc3nc(N[C@@H]4CCOC[C@H]4O)ncc3Cl)n21 (stereo partly drawn) [Example 132, (3 S,4R)-4-((5-chloro-4-((5-methyl-6,7-dihydro-5H-imidazo[2,1-o][1,3]oxazin-3-yl)ethynyl)pyrimidin-2-yl)amino)tetrahydro-2H-pyran-3-ol] |  |  |  | 243 | 93.7
CC(C)n1c(C#Cc2nc(Nc3ccc(N4CC5(CN(CC(F)F)C5)C4)cn3)ncc2Cl)cnc1CN1CCC[C@H](O)C1 [Example 116, (S)-1-((5-((5-chloro-2-((5-(6-(2,2-difluoroethyl)-2,6-diazaspiro[3.3]heptan-2-yl)pyridin-2-yl)amino)pyrimidin-4-yl)ethynyl)-1-isopropyl-1H-imidazol-2-yl)methyl)piperidin-3-ol] |  |  |  | 87.8 | 5.7
CC(C)n1c(C#Cc2nc(N[C@@H]3CCOC[C@H]3O)ncc2Cl)cnc1CN1[C@H](C)COC[C@@H]1C [Example 72, (3S,4R)-4-((5-chloro-4-((2-(((3R,5S)-3,5-dimethylmorpholino)methyl)-1-isopropyl-1H-imidazol-5-yl)ethynyl)pyrimidin-2-yl)amino)tetrahydro-2H-pyran-3-ol] |  |  |  | 263 | 17
CC(C)n1c(C#Cc2nc(N[C@H]3CCOC[C@@H]3O)ncc2Cl)cnc1C(C)(C)O [Example 3, (3R,4S)-4-((5-chloro-4-((2-(2-hydroxypropan-2-yl)-1-isopropyl-1H-imidazol-5-yl)ethynyl)pyrimidin-2-yl)amino)tetrahydro-2H-pyran-3-ol] |  | 467 |  |  | 
